Consider one molecule from patent publication US20150352114A1, “MITOTIC KINESIN Eg5 INHIBITING ANTICANCER AGENTS” (THE CLEVELAND CLINIC FOUNDATION, priority 2014, published 2015).

The structures appear in SMILES notation.

The test system of assay [1] is glioblastoma stem cells (GSCs). Nature of the assay: Dose response cell viability, CellTiter-Glo ATP-based assay, GSCs. The settings on record: Homo sapiens, 0 to 32 nM, 72 hours. From the text:
(§1) Human tissues were acquired from primary human brain tumor patient specimens in accordance with appropriate approved Institutional Review Board protocols. Tumor grade and available cytogenetic information for each specimen has been previously described. Tumor specimens were maintained through subcutaneous xenografts in the flanks of athymic Nu/Nu or NSG mice. Tumors were dissociated using a papain dissociation system (Worthington Biochemical, Lakewood, N.J.). […]
(§2) The half maximal effective concentration of ispinesib for acutely dissociated and MACS sorted matched GSCs and NSTCs was determined by plating, in triplicate, 1,000 cells per well of a 96 well plate pre-coated with GelTrex in growth-factor free Neuralbasal media. […] Viability was measured at 72 hours using CellTiter-Glo ATP-based assay (Promega, Madison, Wis.) read on a luminometer (Perkin-Elmer, Waltham, Mass.). […] The next day, cells were exposed to 3 nM ispinesib or vehicle (DMSO) and viability was measured daily for 5 days using CellTiter-Glo. Day 0 reading were taken immediately after addition of drug or vehicle. SubG1 for GSCs and NSTCs was determined by flow cytometry for propidium iodide and gated as the events below the 2N G1 peak of the resulting histogram. […] Cells were fixed at Day 0 through Day 4 in 100% cold ethanol and simultaneously processed for flow analysis with 20,000 events analyzed per condition.
For orientation: In ATP-based viability assays light output follows the ATP content of the culture.

The test system of the next assay is matched GSCs and NSTCs. As to the kind of experiment: SubG1 (apoptotic) population by flow cytometry for propidium iodide. Format: cell-based, human. The settings on record: 3 nM; four days; three xenograft patient specimens. How it is done:
The half maximal effective concentration of ispinesib for acutely dissociated and MACS sorted matched GSCs and NSTCs was determined by plating, in triplicate, 1,000 cells per well of a 96 well plate pre-coated with GelTrex in growth-factor free Neuralbasal media. The next day, cells were exposed to 2-fold increasing concentrations of ispinesib spanning from 0 to 32 nM. Viability was measured at 72 hours using CellTiter-Glo ATP-based assay (Promega, Madison, Wis.) read on a luminometer (Perkin-Elmer, Waltham, Mass.). For long-term viability assays, 500 cells per well were plated in triplicate into 96-well plates as above. The next day, cells were exposed to 3 nM ispinesib or vehicle (DMSO) and viability was measured daily for 5 days using CellTiter-Glo. Day 0 reading were taken immediately after addition of drug or vehicle. SubG1 for GSCs and NSTCs was determined by flow cytometry for propidium iodide and gated as the events below the 2N G1 peak of the resulting histogram. Analysis was done following treatment of 100,000 cells with vehicle or 3 nM ispinesib. Cells were fixed at Day 0 through Day 4 in 100% cold ethanol and simultaneously processed for flow analysis with 20,000 events analyzed per condition.
A general note: A flow cytometer gives signals particle by particle.

In a further assay the test system is NSTCs. As to the kind of experiment: Dose response cell viability, CellTiter-Glo ATP-based assay, NSTCs. The settings on record: Homo sapiens, 0 to 32 nM, 72 hours.
Excerpt: as §1, §2

The next assay has as its system GSCs from xenograft 3691. Nature of the assay: Intracranial implantation of pre-exposed GSCs (tumor initiation). Format: in vivo, mice. As for the experimental part: All animal studies described were approved by the Cleveland Clinic Foundation Institutional Animal Care and Use Committee and conducted in accordance with the NIH Guide for the Care and Use of Laboratory Animals. For subcutaneous tumor studies, 1×10^5 freshly dissociated GBM cells from a xenograft originally derived from a primary GBM patient specimen (3691) were injected into the flanks of 10 six week old female athymic nu/nu mice. Tumors were allowed to reach approximately 0.12 cm^3, at which point animals were randomized into either vehicle control (DMSO) group or ispinesib (10 mg/kg given daily for 7 consecutive days by intraperitoneal injection) (Selleck Chemicals, Houston, Tex.). Tumors were monitored and measured daily using perpendicular diameter measurements for 7 days. Tumor volume was calculated using the ellipsoid formula π/6×larger diameter×(smaller diameter)^2. After the last treatment on Day 7, tumors were removed and weighed then processed for immunofluorescence (as described below). For intracranial implantation studies to evaluate tumor initiation by GSCs, the cells were isolated as described below and pre-exposed to drug or vehicle either in vitro or in vivo. […] Mice were monitored daily for neurological impairment at which time they were sacrificed and brains removed to evaluate for tumor development.

Assay [2] deals with 08-387 GSCs. As to the kind of experiment: Cytoskeleton Phospho Antibody Array. In kind it is cell-based, human. Conditions: 200 nM; 7 hours. How it is done: 08-387 GSCs were enriched in G1 as described. Cells were then exposed to vehicle or ispinesib (200 nM) for 7 hours. Following treatment, cells were pelleted and snap frozen in liquid nitrogen before shipping to Full Moon Biosystems for processing to probe a Cytoskeleton Phospho Antibody Array containing 141 highly specific cytoskeleton related antibodies (Sunnyvale, Calif.).

The test system of assay [3] is 08-387 GSCs. As to the kind of experiment: Transwell in vitro invasion assay. In kind it is cell-based, human. As for the experimental part: 08-387 GSCs enriched in G1 (8 hours post final thymidine release) were pre-exposed to vehicle or ispinesib (200 to 0 nM at a two-fold dilution) for one hour prior to being seeded onto Matrigel coated FluoroBlok Cell Culture Inserts at 125,000 cells per insert (±vehicle or ispinesib, plated in triplicate) with Neurobasal media supplemented with 10% FBS in the lower reservoir (BD Falcon, Franklin Lakes, N.J.). After 8 hours, membranes were processed for analysis with nuclei stained with DAPI. Nuclei on the lower surface of the membrane within the central field were scored using the 20× objective on a Leica DMIRB inverted microscopes.

Consider `Cc1ccc(C(=O)N(CCCN)[C@@H](c2nc3cc(Cl)ccc3c(=O)n2Cc2ccccc2)C(C)C)cc1` [ispinesib, N-(3-amino-propyl)-n-[R-1-(3-benzyl-7-choloro-4-oxo-3,4-dihydroquinazolin-2-yl)-2-methyl-propyl]-4-methyl-benzamide methanesulfonate], for which the EC50 in assay [1] was found to be 1.15 ± 0.35 nM; in the assay on NSTCs, 1.79 ± 0.22 nM; in the assay on 08-387 GSCs [3] (Homo sapiens, 8 h, read-out: EC50, Transwell migration) it was 67.2 nM. Further, in the assay on matched GSCs and NSTCs, the “subG1 population (surrogate marker for apoptosis)” value is recorded as “higher subG1 fraction over NSTCs”. In the assay with GSCs from xenograft 3691 (GSCs from subcutaneous tumors treated in vivo 3 days with 10 mg/kg, 1,000 or 10,000 cells per mouse), the tumor initiation result is on record as “reduced their tumor initiation phenotype”. The secondary tumor initiation result with GSCs from xenograft 3691 (GSCs pretreated in vitro 18 hours with 3 nM, 2,500 or 25,000 cells per mouse) was “significant impairment of secondary tumor initiation”. Moreover, the “phosphorylation of 141 cytoskeleton proteins” value with 08-387 GSCs [2] is reported as “no significant changes in phosphorylation”. Moreover, the “fewer cells migrated per field compared to vehicle control” value in the assay on 08-387 GSCs [3] (200 nM) is reported as “approximately 6 fold”. Besides, the Transwell migration result in the assay with 08-387 GSCs [3] (interphase-enriched cells, 8 hours) was “completely block”.
